Results reported in ChEMBL document CHEMBL4359910, “From random to rational: A discovery approach to selective subnanomolar inhibitors of human carbonic anhydrase IV based on the Castagnoli-Cushman multicomponent reaction” (Eur J Med Chem, 2019).

Legend:
T98G = assay: Cytotoxicity against human T98G cells measured after 48 hrs under normoxia condition in presence of CoCl2 by MTT assay; format: functional, cell-based
ARPE-19 [1] = assay: Cytotoxicity against human ARPE19 cells at 30 to 300 uM measured after 48 hrs under normoxia condition in presence of CoCl2 by MTT assay relative to control; format: cell-based; details: arpe-19, 48 h
ARPE-19 [2] = assay: Cytotoxicity against human ARPE19 cells at 300 uM measured after 48 hrs under normoxia condition in presence of CoCl2 by MTT assay; format: cell-based; details: arpe-19, 48 h

## CC(=O)OCCNC(=O)[C@H]1CC(=O)N(c2ccc(S(N)(=O)=O)cc2)[C@@H]1c1ccc(Cl)cc1
T98G
  Activity: Dose-dependent effect
ARPE-19 [1]
  Activity: 80%

## NS(=O)(=O)c1ccc(N2C(=O)C[C@H](C(=O)NCCCn3ccnc3)[C@H]2c2ccc(Cl)cc2)cc1 (racemic)
T98G
  Activity: Dose-dependent effect
ARPE-19 [1]
  Activity: 80%

## CN1CCN(CCCNC(=O)[C@H]2CC(=O)N(c3ccc(S(N)(=O)=O)cc3)[C@@H]2c2ccc(Cl)cc2)CC1 (racemic)
ARPE-19 [2]
  Activity: Toxic
T98G
  Activity: Dose-dependent effect

## NS(=O)(=O)c1ccc(N2C(=O)C[C@H](C(=O)NCCCN3CCCC3)[C@H]2c2ccc(Cl)cc2)cc1 (racemic)
T98G
  Activity: Dose-dependent effect
ARPE-19 [1]
  Activity: 80%

## NS(=O)(=O)c1ccc(N2C(=O)C[C@H](C(=O)NCCC(=O)O)[C@H]2c2ccc(Cl)cc2)cc1 (racemic)
T98G
  Activity: Dose-dependent effect

## NS(=O)(=O)c1ccc(N2C(=O)C[C@H](C(=O)NCCCO)[C@H]2c2ccc(Cl)cc2)cc1 (racemic)
T98G
  Activity: Dose-dependent effect
